Results taken from ChEMBL document CHEMBL3745649, “Structure-activity relationship study of anticancer thymidine-quinoxaline conjugates under the low radiance of long wavelength ultraviolet light for photodynamic therapy” (Eur J Med Chem, 2016).
Activity calls are given as the source filed them. No cut-off for these calls is given here.

Assays:
[1] = Induction of apoptosis in human PANC1 cells assessed as viable cells at 2 uM after 24 hrs by Annexin V-FITC/propidium iodide staining-based flow cytometric analysis in absence of UVA-1 irradiation (reference value: 88.6%); assay type: cell-based, PANC-1; settings: read-out: Activity
[2] = Photocytotoxicity against human PANC1 cells assessed as cell viability preincubated for 5 hrs with cells followed by white light irradiation at 0.015 mW/cm'2 for 20 mins measured after 48 hrs by CCK8 assay; assay type: functional, cell-based; settings: PANC-1, light or radiation study
[3] = Photocytotoxicity against human PANC1 cells assessed as cell viability preincubated for 5 hrs with cells followed by UVA-1 irradiation at 3.0 mW/cm'2 for 20 mins measured after 48 hrs by CCK8 assay; assay type: functional, cell-based; settings: PANC-1, light or radiation study
[4] = Induction of apoptosis in human PANC1 cells assessed as early apoptotic cells at 2 uM after 24 hrs by Annexin V-FITC/propidium iodide staining-based flow cytometric analysis in absence of UVA-1 irradiation (reference value: 9.4%); assay type: cell-based; settings: panc-1, 24 h
[5] = Induction of apoptosis in human PANC1 cells assessed as late apoptotic cells at 2 uM after 24 hrs by Annexin V-FITC/propidium iodide staining-based flow cytometric analysis in absence of UVA-1 irradiation (reference value: 1.5%); assay type: cell-based; settings: panc-1, 24 h
[6] = Induction of apoptosis in human PANC1 cells assessed as necrotic cells at 2 uM after 24 hrs by Annexin V-FITC/propidium iodide staining-based flow cytometric analysis in absence of UVA-1 irradiation (reference value: 0.5%); assay type: cell-based; settings: panc-1, 24 h
PANC-1 [7] = experiment: Induction of apoptosis in human PANC1 cells assessed as viable cells at 2 uM preincubated for 5 hrs followed by UVA-1 irradiation at 3 mW/cm'2 for 20 mins measured after 24 hrs by Annexin V-FITC/propidium iodide staining-based flow cytometric analysis (reference value: 91%); assay type: functional; settings: PANC-1, light or radiation study, read-out: Activity
PANC-1 [8] = experiment: Induction of apoptosis in human PANC1 cells assessed as early apoptotic cells at 2 uM preincubated for 5 hrs followed by UVA-1 irradiation at 3 mW/cm'2 for 20 mins measured after 24 hrs by Annexin V-FITC/propidium iodide staining-based flow cytometric analysis (reference value: 7.4%); assay type: functional
PANC-1 [9] = experiment: Induction of apoptosis in human PANC1 cells assessed as late apoptotic cells at 2 uM preincubated for 5 hrs followed by UVA-1 irradiation at 3 mW/cm'2 for 20 mins measured after 24 hrs by Annexin V-FITC/propidium iodide staining-based flow cytometric analysis (reference value: 1.3%); assay type: functional
PANC-1 [10] = experiment: Induction of apoptosis in human PANC1 cells assessed as necrotic cells at 2 uM preincubated for 5 hrs followed by UVA-1 irradiation at 3 mW/cm'2 for 20 mins measured after 24 hrs by Annexin V-FITC/propidium iodide staining-based flow cytometric analysis (reference value: 0.3%); assay type: functional
[11] = Dark cytotoxicity against human PANC1 cells assessed as production of reactive oxygen stress at 5 uM after 5 hrs by DCFH-DA based fluorescence microscopic analysis in absence of UVA-1 irradiation; assay type: cell-based; settings: panc-1, 5 h
PANC-1 [12] = experiment: Photocytotoxicity against human PANC1 cells assessed as production of reactive oxygen stress at 5 uM preincubated for 5 hrs followed by UVA-1 irradiation at 3 mW/cm'2 for 20 mins by DCFH-DA based fluorescence microscopic analysis; assay type: functional, cell-based
[13] = Retention time of the compound at 5 uM by HPLC analysis; assay type: physicochemical
PANC-1 [14] = experiment: Photocytotoxicity against human PANC1 cells assessed as production of reactive oxygen stress at 5 uM preincubated for 5 hrs followed by UVA-1 irradiation at 3 mW/cm'2 for 20 mins measured after 5 hrs by HPLC analysis; assay type: functional, cell-based
[15] = Retention time of the compound in human PANC1 cells at 5 uM after 5 hrs by HPLC analysis in absence of UVA-1 irradiation; assay type: ADME, cell-based; settings: panc-1, 5 h
[16] = Retention time of the compound in human PANC1 cells at 5 uM preincubated for 5 hrs followed by UVA-1 irradiation at 3 mW/cm'2 for 20 mins measured after 5 hrs by HPLC analysis; assay type: ADME, cell-based; settings: panc-1, 5 µM
Bel-7402 [17] = experiment: Photocytotoxicity against human Bel7402 cells assessed as production of reactive oxygen stress at 5 uM preincubated for 5 hrs followed by UVA-1 irradiation at 0.85 mW/cm'2 for 20 mins measured for 4 to 10 mins by DCFH-DA based fluorescence microscopic analysis; assay type: functional, cell-based
PANC-1 [18] = experiment: Photocytotoxicity against human PANC1 cells assessed as production of reactive oxygen stress at 5 uM preincubated for 5 hrs followed by UVA-1 irradiation at 0.85 mW/cm'2 for 20 mins measured for 4 to 10 mins by DCFH-DA based fluorescence microscopic analysis; assay type: functional, cell-based
PANC-1 [19] = experiment: Potency index, ratio of sunitinib EC50 to compound EC50 for human PANC1 cells in presence of UVA-1 irradiation at 3 mW/cm'2; assay type: functional
Bel-7402 [20] = experiment: Potency index, ratio of sunitinib EC50 to compound EC50 for human Bel7402 cells in presence of UVA-1 irradiation at 3 mW/cm'2; assay type: functional
PANC-1 [21] = experiment: Ratio of EC50 for human PANC1 cells in presence of UVA-1 irradiation at 0.85 mW/cm'2 to EC50 for human PANC1 cells in presence of UVA-1 irradiation at 3 mW/cm'2; assay type: functional
Bel-7402 [22] = experiment: Ratio of EC50 for human Bel7402 cells in presence of UVA-1 irradiation at 0.85 mW/cm'2 to EC50 for human Bel7402 cells in presence of UVA-1 irradiation at 3 mW/cm'2; assay type: functional
[23] = Photocytotoxicity against human PANC1 cells assessed as cell viability at 10 uM preincubated for 5 hrs with cells followed by white light irradiation at 0.015 mW/cm'2 for 20 mins measured after 48 hrs by CCK8 assay relative to control; assay type: functional; settings: PANC-1, light or radiation study, read-out: Activity
[24] = Dark toxicity against human Bel7402 cells assessed as cell viability after 53 hrs by CCK8 assay in absence of UVA-1 irradiation; assay type: cell-based, Bel-7402
[25] = Dark toxicity against human PANC1 cells assessed as cell viability after 53 hrs by CCK8 assay in absence of UVA-1 irradiation; assay type: cell-based, PANC-1
[26] = Photocytotoxicity against human Bel7402 cells assessed as cell viability preincubated for 5 hrs followed by UVA-1 irradiation at 0.85 mW/cm'2 for 20 mins measured after 48 hrs by CCK8 assay; assay type: functional, cell-based; settings: Bel-7402, light or radiation study
[27] = Photocytotoxicity against human PANC1 cells assessed as cell viability preincubated for 5 hrs followed by UVA-1 irradiation at 0.85 mW/cm'2 for 20 mins measured after 48 hrs by CCK8 assay; assay type: functional, cell-based; settings: PANC-1, light or radiation study
Bel-7402 [28] = experiment: Photocytotoxicity against human Bel7402 cells assessed as cell viability pretreated with UVA-1 irradiation at 3.0 mW/cm'2 for 20 mins followed by cell addition measured after 48 hrs by CCK8 assay; assay type: functional, cell-based
PANC-1 [29] = experiment: Photocytotoxicity against human PANC1 cells assessed as cell viability preincubated for 24 hrs with cells followed by UVA-1 irradiation for 20 mins at 3.0 mW/cm'2 measured after 48 hrs by CCK8 assay; assay type: functional, cell-based
PANC-1 [30] = experiment: Photocytotoxicity against human PANC1 cells assessed as cell viability pretreated with UVA-1 irradiation at 3.0 mW/cm'2 for 20 mins followed by cell addition measured after 48 hrs by CCK8 assay; assay type: functional, cell-based
[31] = Photocytotoxicity against human Bel7402 cells assessed as cell viability preincubated for 5 hrs with cells followed by UVA-1 irradiation at 3.0 mW/cm'2 for 20 mins measured after 48 hrs by CCK8 assay; assay type: functional, cell-based; settings: Bel-7402, light or radiation study
Bel-7402 [32] = experiment: Photocytotoxicity against human Bel7402 cells assessed as cell viability preincubated for 24 hrs with cells followed by UVA-1 irradiation for 20 mins at 3.0 mW/cm'2 measured after 48 hrs by CCK8 assay; assay type: functional, cell-based
[33] = Photocytotoxicity against human Bel7402 cells assessed as cell viability at 10 uM preincubated for 5 hrs with cells followed by white light irradiation at 0.015 mW/cm'2 for 20 mins measured after 48 hrs by CCK8 assay relative to control; assay type: functional; settings: Bel-7402, light or radiation study, read-out: Activity
[34] = Photocytotoxicity against human Bel7402 cells assessed as cell viability preincubated for 5 hrs with cells followed by white light irradiation at 0.015 mW/cm'2 for 20 mins measured after 48 hrs by CCK8 assay; assay type: functional, cell-based; settings: Bel-7402, light or radiation study
[35] = Photocytotoxicity against human Bel7402 cells assessed as cell viability preincubated for 5 hrs followed by UVA-1 irradiation at 5.4 mW/cm'2 for 20 mins measured after 48 hrs by CCK8 assay; assay type: functional, cell-based; settings: Bel-7402, light or radiation study
[36] = Photocytotoxicity against human PANC1 cells assessed as cell viability preincubated for 5 hrs followed by UVA-1 irradiation at 5.4 mW/cm'2 for 20 mins measured after 48 hrs by CCK8 assay; assay type: functional, cell-based; settings: PANC-1, light or radiation study

Cc1cn([C@H]2C[C@H](n3cc(CNC(=O)CCCCCOc4ccc5c(c4)-c4nc6cc(Cl)c(Cl)cc6nc4[C@@H]4C(C)(C)CCC[C@]54C)nn3)[C@@H](CO)O2)c(=O)[nH]c1=O
viability at 24 h, 2 µM [1]: 89.4%
EC50 [2]: > 10000 nM
EC50 [3]: 1300 nM
Activity [4]: 8.8%
Activity [5]: 1.4%
Activity [6]: 0.4%
viability at 2 µM (PANC-1 [7]): 40.5%
Activity (PANC-1 [8]): 11.9%
Activity (PANC-1 [9]): 44.1%
Activity (PANC-1 [10]): 3.5%
Activity [11]: Non-toxic
Activity (PANC-1 [12]): Active
Retention_time [13]: 68 min
Activity (PANC-1 [14]): Active
Retention_time [15]: 68 min
Retention_time [16]: 68 min
Activity (Bel-7402 [17]): Active
Activity (PANC-1 [18]): Active
Ratio EC50 (PANC-1 [19]): 20
Ratio EC50 (Bel-7402 [20]): 10
Ratio EC50 (PANC-1 [21]): 4
Ratio EC50 (Bel-7402 [22]): 3
viability at 10 µM [23]: < 40%
EC50 at 53 h [24]: > 20000 nM
EC50 at 53 h [25]: ≥ 50000 nM
EC50 [26]: 2000 nM
EC50 [27]: 5700 nM
Activity (Bel-7402 [28]): inactive
Activity (PANC-1 [29]): Active
Activity (PANC-1 [30]): inactive
EC50 [31]: 670 nM
Activity (Bel-7402 [32]): Active
viability at 10 µM [33]: < 40%
EC50 [34]: > 10000 nM
EC50 [35]: 610 nM
EC50 [36]: 1200 nM
